From patent publication US20150190416A1, “FILAGGRIN PRODUCTION PROMOTER, THERAPEUTIC AGENT FOR DISEASES ASSOCIATED WITH REDUCTION IN PRODUCTION OF FILAGGRIN, AND METHOD FOR SCREENING FOR SAID THERAPEUTIC AGENT” (KYOTO UNIVERSITY, priority 2012, published 2015)

How the values were obtained:
FLG monomer = test: FLG monomer-producing effect in atopic dermatitis mouse model (NC/Nga), Western blotting (Example 15); assay type: in vivo; conditions: oral 0.75 mg every other day, 2 weeks, ear epidermis
Procedure: Experiments were conducted with raising 6- to 10-week-old atopic dermatitis-developing NC/Nga mice with mites (Japan SLC, Inc.) under a normal environment. Namely, 500 μl of a solution obtained by dissolving Compound 1 at 1.5 mg/ml in a methyl cellulose solution (0.5 W/V % Methyl Cellulose 400 Solution, Wako, 133-14255) were orally administered to an NC/Nga mouse developing dermatitis majorly in the ear auricles and the head (0.75 mg of Compound 1 was administered to the mouse per time) every other day. As a control, 500 μl of the methyl cellulose solution was orally administered every other day. The experiments were conducted by using five mice in each of a Compound 1-administered group and a control group.
2 weeks after the beginning of administration, ears of each mouse were cut under anesthesia, the skin of the cut ear was peeled off by pinching cartilage, and the skin on the dermal side was soaked in PBS containing 20 mM EDTA at 37° C. for 30 minutes. Next, the epidermis of the ear was peeled off and […] of Lysis buffer (0.1 M Tris-HCl (pH 9.0), 6 M Urea, 1% 2-mercapto-ethanol, 1% SDS, 1 mM EDTA, and Protease inhibitor cocktail) were added to the epidermis. The epidermis was homogenized with an electrically powered pestle, and the homogenized cells were centrifuged at 15,000 rpm at 4° C. for 20 minutes. […]

[1] = test system: atopic dermatitis mouse model (NC/Nga); test: Dermatitis-alleviating effect in atopic dermatitis mouse model (NC/Nga) (Example 14); assay type: in vivo
Procedure: Experiments were conducted with raising 6- to 10-week-old atopic dermatitis-developing NC/Nga mice with mites (Japan SLC, Inc.) under a normal environment. Namely, the dermatitis-alleviating effect was measured by the oral administration of 500 μl of a solution obtained by dissolving Compound 1 at 0.75 mg/ml in a methyl cellulose solution (0.5 W/V % Methyl Cellulose 400 Solution, Wako, 133-14255) to an NC/Nga mouse developing dermatitis majorly in the ear auricles and the head (0.375 mg of Compound 1 was administered to the mouse per time) every other day. As a control, 500 μl of the methylcellulose solution were administered orally every other day.
With regard to clinical manifestations, the evaluation was conducted on a four-point scale of none (0), weak (1), moderate (2), and severe (3) by visual inspection for four items of erythema, edema, erosion, and squama. The evaluated values of the four items were summed to give a score before the start of oral administration (0 wk), 4 weeks after the oral administration (4 wk), and 8 weeks after the oral administration (8 wk), and then the clinical manifestations of a mouse model were measured as a clinical score. Further, the oral administration was ended 8 weeks after the start of oral administration, and thereafter, the mouse was continued to be kept under the same conditions. 4 weeks after the end of oral administration (12 wk after the start of oral administration), clinical manifestations were scored in the same manner.
A TEWL was measured 8 and 12 weeks after the start of oral administration in the above-mentioned section (i) using a tape type closed chamber system water transpiration measuring instrument VAPO SCAN AS-VT100RS (ASAHI BIOMED) according to the manufacturer's manual.
The appearances of the developing NC/Nga mice 12 weeks after the start of oral administration (the oral administration was ended 8 weeks after the start of oral administration) in (i) described above were shown in FIGS. 16(a) and 16(b).

GPR22 = test: Blocking effect by GPR22 RNAi in NHEK cells (Reference Example 1); assay type: cell-based, human; conditions: calcium priming, siRNA 10 nM, Compound 1 10 nM, 1 day
Procedure: 1) 5×10^4 cells/well of NHEK cells (Invitrogen) were plated on a 24-well plate. Then, 500 μl of a culture medium containing a medium for proliferating normal human epidermal keratinocytes (HuMedia-KG2, KURABO INDUSTRIES LTD.) supplemented with hEGF (0.1 ng/ml), insulin (10 μg/ml), hydrocortisone (0.5 μg/ml), gentamycin (50 μg/ml), amphotericin B (50 ng/ml), and bovine brain pituitary extract (BPE) (0.4%, v/v) were added to the plate, and the cells were cultured under the conditions of 37° C. and 5% CO2.
2) 1 day after the step 1), the medium was exchanged for the medium supplemented with calcium every day, and culture was conducted for 2 days (priming).
3) The NHEK cells of the step 2) were transfected with 10 nM of siRNA per well of the 24-well plate by using a transfection reagent, Lipofectamine RNA Max (Invitrogen) according to the manufacturer's protocol.
4) After culture for 1 day after the step 3), the medium was exchanged for a medium to which Compound 1 dissolved in DMSO was added at 10 nM per well on the 24-well plate, and culture was conducted for 1 day. As a control example, a solvent only (vehicle) was added.
5) An extraction reagent (TRIzol™, Invitrogen) was used, and according to the manufacturer's protocol, total RNA was extracted from each of cells treated with the medicament. A reverse transcriptase reagent (Prime Script™, Takara) was used, and according to the manufacturer's protocol, cDNA was prepared from the total RNA. Real-time PCR was conducted by using SYBR™ Premix Ex Taq (Takara) with a CFX96 real-time PCR instrument according to the manufacturer's protocol, and the amounts of GPR22 mRNA and FLG mRNA were measured. The results of measurement are shown as a GAPDH ratio.

Compound: CCc1ccc(OCc2ccccc2C(=O)Nc2ccc3nc(C)cc(N)c3c2)cc1.Cl [Compound 1, N-(4-Amino-2-methyl-6-quinolyl)-2-[(4-ethylphenoxy)methyl]benzamide hydrochloride]
- production of FLG monomer (relative to GAPDH) (FLG monomer): clearly promoted the production of FLG monomer
- appearance of developing NC/Nga mouse ([1]; 12 weeks after start of oral administration, 4 weeks after the end): almost good clinical manifestations were kept
- amount of water transpiration (TEWL) ([1]; NC/Nga mouse, 4 weeks after the end of oral administration (12 weeks after the start)): suppressed as compared to the control
- clinical manifestations of dermatitis (clinical score) ([1]; NC/Nga mouse, 4 weeks after the end of oral administration (12 wk after the start)): symptoms of dermatitis were suppressed as compared to the control
- clinical manifestations of dermatitis (clinical score) ([1]; NC/Nga mouse, oral 0.375 mg every other day, 8 weeks after the start of oral administration): symptoms of dermatitis were alleviated
- transepidermal water loss (TEWL) ([1]; developing NC/Nga mouse, oral 0.375 mg every other day, after 8 weeks, control about 60): about 10 g/h·m^2
- FLG mRNA expression in the presence of GPR22 siRNA (GPR22): not suppressed
- GPR22 mRNA expression in the presence of GPR22 siRNA (GPR22): suppressed by GPR22 siRNA
